This is an account of results in patent US20180353457A1, “ABIETANE DITERPENOID 7-ACETOXYROYLEANONES FOR USE IN CANCER TREATMENT” (University of South Carolina, priority 2017, published 2018).

Data set [1] concerns MDA-MB-468 (breast cancer) cells. The data set can be described thus: NCI-60 five dose screen, MDA-MB-468. As to conditions: read-out: LC50; MDA-MB-468, Breast.
Data set [2] has as its system COLO 205 (colon cancer) cells. The data set can be described thus: NCI-60 five dose screen, COLO 205. The conditions noted are these: read-out: LC50; COLO 205, Colon.
Data set [3] concerns RXF 393 (renal cancer) cells. Briefly: NCI-60 five dose screen, RXF 393. The conditions noted are these: read-out: LC50; RXF 393, Renal.
The test system of data set [4] is NCI-60 panel of cancer cell lines. The conditions noted are these: for GI50: across all 60 cell lines.
Data set [5] has as its system A498 (renal cancer) cells. The data set can be described thus: NCI-60 five dose screen, A498. As to conditions: read-out: LC50; A498, Renal.
Data set [6] has as its system SF-295 (CNS cancer) cells. The data set can be described thus: NCI-60 five dose screen, SF-295. As to conditions: read-out: LC50; SF-295, CNS.
Data set [7] has as its system MDA-MB-231 (breast adenocarcinoma) cells. Briefly: MTS cytotoxicity assay, MDA-MB-231. Type of data set: cell-based. As to conditions: MDA-MB-231 cells. An excerpt: (§1) Human cell lines used included MG-63 (osteosarcoma), SK-OV-3 (ovarian adenocarcinoma), MDA-MB-231 (breast adenocarcinoma derived from a metastatic site), HCT 116 (colorectal carcinoma), HCT 116/200 (an FdUrd resistant subclone of HCT 116 cells), and A2780ADR (a doxorubicin resistant subclone of the ovarian carcinoma A2780). All cells were stored in liquid nitrogen until use. MG-63, SK-OV-3, MDA-MB-231, and HCT 116 cell lines were all obtained from ATCC. A2780ADR cells were obtained from Sigma-Aldrich. HCT 116/200 cells were obtained from Dr. Franklin G. Berger from the Center for Colon Cancer Research. MG-63 cells were maintained in MEM medium (Corning) supplemented with 10% Fetal Bovine Essence (VWR) and 1% penicillin/streptomycin solution (Corning). SK-OV-3 cells were maintained in McCoy's 5A Medium (Sigma) supplemented with Fetal Bovine Essence and 1% penicillin/streptomycin. […]
(§2) Cells were first grown to approximately 80% confluency within […] tissue culture flasks (VWR). […] Cells were counted using a hemocytometer and their viability was confirmed using trypan blue (Gibco). […]
(§3) In combination studies, 7-acetoxyroyleanone and FdUrd were first mixed into the same media and then added to the cells. […] The cells were incubated for 2 hours, and the absorbance of each well at 490 nm was measured using a Spectramax 190 microplate reader.

Data set [8] deals with leukemia cell lines. The conditions noted are these: read-out: LC50; each leukemia cell line; not reached at highest concentration tested.
Data set [9] relates to NCI-H522 (non-small cell lung cancer) cells. Briefly: NCI-60 five dose screen, NCI-H522. As to conditions: read-out: LC50; NCI-H522, Non-small Cell Lung Cancer.
In data set [10] the test system is OVCAR-3 (ovarian cancer) cells. The data set can be described thus: NCI-60 five dose screen, OVCAR-3. As to conditions: read-out: LC50; OVCAR-3, Ovarian.
Data set [11] deals with HCT 116 (colorectal carcinoma) cells. The data set can be described thus: MTS cytotoxicity assay, HCT 116. The conditions noted are these: HCT 116 cells. Type of data set: cell-based.
Source text: as §1, §2, §3

The test system of data set [12] is A2780ADR (doxorubicin resistant subclone of ovarian carcinoma A2780) cells. The data set can be described thus: MTS cytotoxicity assay, A2780ADR. Type of data set: cell-based. As to conditions: 48 and 72 hours of exposure.
Source text: as §1, §2, §3
For orientation: Tetrazolium dyes change colour on reduction, which living cells bring about.

In data set [13] the test system is HCT 116/200 (FdUrd resistant subclone of HCT 116) cells. The data set can be described thus: MTS cytotoxicity assay, HCT 116/200. Type of data set: cell-based. As to conditions: HCT 116/200 cells.
Source text: as §1, §2, §3

The subject of data set [14] is HOP-92 (non-small cell lung cancer) cells. Briefly: NCI-60 five dose screen, HOP-92. The conditions noted are these: read-out: LC50; HOP-92, Non-small Cell Lung Cancer.
Where [15] appears, read: 48 and 72 hours of exposure, MTS.

Like-named read-outs stand apart in the source and are kept apart here.

Turning to `CC(=O)O[C@@H]1C[C@H]2C(C)(C)CCC[C@]2(C)C2=C1C(=O)C(C(C)C)=C(O)C2=O` [7-acetoxyroyleanone], the CC50 in [1] came to 9.46 µM; in [2], 6.3 µM; in data set [3], 5.87 µM; in [4], 11.5 µM; in data set [5], 5.19 µM; in data set [6], 7.37 µM. Also, the CC50 in data set [8] was > 100 µM; in [9], 9.02 µM; in [10], 7.46 µM; in data set [14], 5.4 µM. In addition, the “average TGI concentration” value in [4] (across the 50 cell lines with TGI within the range tested) stood at 6.69 µM. The GI50 in [4] (read-out: average GI50 concentration, five dose screen) amounted to 1.27 µM; in [4] (read-out: range of the GI50 concentrations), 2.86 µM. The “cell death at the lowest concentration tested” value in data set [7] (1 μg/mL) and in data set [11] (1 μg/mL) was “cell death was indicated” each time. For the same compound, the “cytotoxicity (percent viability)” value in data set [7] (setting [15]) is “significant cytotoxic properties”; in [11] (setting [15]), “significant cytotoxic properties”; in data set [12], “significant cytotoxic properties”; in [13] (48 and 72 hours of exposure), “significant cytotoxic properties”. For the same compound, the “cytotoxic effect in combination with FdUrd (percent viability, cell number)” value in data set [13] (48 hour exposure, combined with 1 μg/mL FdUrd) was “synergistic cytotoxic effect”.
